Experimental data taken from patent US9149038B2, “4-amino-6-(heterocyclic)picolinates and 6-amino-2-(heterocyclic)pyrimidine-4-carboxylates and their use as herbicides” (Dow AgroSciences LLC, priority 2013, dated 2015).
Read-outs that look alike come from different tables or passages of the source.

How the values were obtained:
[1] = tested on: Key Broadleaf Weed and Crop Species; assay: Post-Emergent Test II: postemergent herbicidal activity, visual rating after 14 d (Table 7); assay type: in vivo; settings: post-emergence, 336 h; for pest or weed control at 35 g/ha: 35 g ai/ha; for pest or weed control at 70 g/ha: 70 g ai/ha; for pest or weed control at 140 g/ha: 140 g ai/ha
Outline: (§1)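 Greenhouse-grown plants at the first or second true leaf stage (7-21 d, ~15 h photoperiod, 23-29° C day) were sprayed with compound in acetone/DMSO-based aqueous spray containing crop oil concentrate and Triton X-155 at 187 L/ha. Injury versus untreated plants was rated visually after 14 d on a 0-100 scale.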

[2] = tested on: Key Grass and Sedge Weeds as well as Grass Crops; assay: Post-Emergent Test II: postemergent herbicidal activity, visual rating after 14 d (Table 8); assay type: in vivo; settings: post-emergence, 336 h; for pest or weed control at 35 g/ha: 35 g ai/ha; for pest or weed control at 70 g/ha: 70 g ai/ha; for pest or weed control at 140 g/ha: 140 g ai/ha
Outline: as §1

[3] = lambsquarters (Chenopodium album), read-out: Visual Growth Reduction (%) 14 Days After Application CHEAL
[4] = oilseed rape, canola (Brassica napus), read-out: Visual Growth Reduction (%) 14 Days After Application BRSNN
[5] = redroot pigweed (Amaranthus retroflexus), read-out: Visual Growth Reduction (%) 14 Days After Application AMARE
[6] = sunflower (Helianthus annuus), read-out: Visual Growth Reduction (%) 14 Days After Application HELAN
[7] = velvetleaf (Abutilon theophrasti), read-out: Visual Growth Reduction (%) 14 Days After Application ABUTH
[8] = wild poinsettia (Euphorbia heterophylla), read-out: Visual Growth Reduction (%) 14 Days After Application EPHHL
[9] = barnyardgrass (Echinochloa crus-galli), read-out: Visual Growth Reduction (%) 14 Days After Application ECHCG
[10] = giant foxtail (Setaria faberi), read-out: Visual Growth Reduction (%) 14 Days After Application SETFA
[11] = maize, corn (Zea mays), read-out: Visual Growth Reduction (%) 14 Days After Application ZEAMX
[12] = rice (Oryza sativa), read-out: Visual Growth Reduction (%) 14 Days After Application ORYSA
[13] = wheat, spring (Triticum aestivum), read-out: Visual Growth Reduction (%) 14 Days After Application TRZAS
[14] = yellow nutsedge (Cyperus esculentus), read-out: Visual Growth Reduction (%) 14 Days After Application CYPES

Row | SMILES | pest or weed control at 35 g/ha [1, 3] [%] | pest or weed control at 70 g/ha [1, 3] [%] | pest or weed control at 140 g/ha [1, 3] [%] | pest or weed control at 35 g/ha [1, 4] [%] | pest or weed control at 70 g/ha [1, 4] [%] | pest or weed control at 140 g/ha [1, 4] [%] | pest or weed control at 35 g/ha [1, 5] [%] | pest or weed control at 70 g/ha [1, 5] [%] | pest or weed control at 140 g/ha [1, 5] [%] | pest or weed control at 35 g/ha [1, 6] [%] | pest or weed control at 70 g/ha [1, 6] [%] | pest or weed control at 140 g/ha [1, 6] [%] | pest or weed control at 35 g/ha [1, 7] [%] | pest or weed control at 70 g/ha [1, 7] [%] | pest or weed control at 140 g/ha [1, 7] [%] | pest or weed control at 35 g/ha [1, 8] [%] | pest or weed control at 70 g/ha [1, 8] [%] | pest or weed control at 140 g/ha [1, 8] [%] | pest or weed control at 35 g/ha [2, 9] [%] | pest or weed control at 70 g/ha [2, 9] [%] | other results
1 | COC(=O)c1nc(-c2cc3c(cc2F)OC(F)(F)O3)nc(N)c1Cl [Compound 56] | 0 to 29 | 0 to 29 | 0 to 29 | 0 to 29 | 0 to 29 | 0 to 29 | 0 to 29 | 0 to 29 | 0 to 29 | 85 to 94 | 85 to 94 | 85 to 94 | 0 to 29 | 0 to 29 | 0 to 29 | 60 to 74 | 95 to 100 | 95 to 100 | 75 to 84 | 75 to 84 | pest or weed control at 140 g/ha [2, 9]: 95 to 100%; pest or weed control at 35 g/ha [2, 10]: 60 to 74%; pest or weed control at 70 g/ha [2, 10]: 75 to 84%; pest or weed control at 140 g/ha [2, 10]: 75 to 84%; pest or weed control at 35 g/ha [2, 11]: 45 to 59%; pest or weed control at 70 g/ha [2, 11]: 60 to 74%; pest or weed control at 140 g/ha [2, 11]: 75 to 84%; pest or weed control at 35 g/ha [2, 12]: 0 to 29%; pest or weed control at 70 g/ha [2, 12]: 0 to 29%; pest or weed control at 140 g/ha [2, 12]: 0 to 29%; pest or weed control at 35 g/ha [2, 13]: 0 to 29%; pest or weed control at 70 g/ha [2, 13]: 30 to 44%; pest or weed control at 140 g/ha [2, 13]: 30 to 44%; pest or weed control at 35 g/ha [2, 14]: 0 to 29%; pest or weed control at 70 g/ha [2, 14]: 45 to 59%; pest or weed control at 140 g/ha [2, 14]: 45 to 59%
2 | COc1c(C(=O)O)nc(-c2cc3c(cc2F)OC(F)(F)O3)c(F)c1N [Compound 23] | 0 to 29 | 0 to 29 | 0 to 29 | 0 to 29 | 75 to 84 | 85 to 94 | 0 to 29 | 0 to 29 | 0 to 29 | 75 to 84 | 85 to 94 | 85 to 94 | 0 to 29 | 0 to 29 | 0 to 29 | 95 to 100 | 95 to 100 | 95 to 100 | 75 to 84 | 95 to 100 | pest or weed control at 140 g/ha [2, 9]: 95 to 100%; pest or weed control at 35 g/ha [2, 10]: 60 to 74%; pest or weed control at 70 g/ha [2, 10]: 75 to 84%; pest or weed control at 140 g/ha [2, 10]: 75 to 84%; pest or weed control at 35 g/ha [2, 11]: 60 to 74%; pest or weed control at 70 g/ha [2, 11]: 60 to 74%; pest or weed control at 140 g/ha [2, 11]: 60 to 74%; pest or weed control at 35 g/ha [2, 12]: 0 to 29%; pest or weed control at 70 g/ha [2, 12]: 0 to 29%; pest or weed control at 140 g/ha [2, 12]: 0 to 29%; pest or weed control at 35 g/ha [2, 13]: 45 to 59%; pest or weed control at 70 g/ha [2, 13]: 45 to 59%; pest or weed control at 140 g/ha [2, 13]: 60 to 74%; pest or weed control at 35 g/ha [2, 14]: 0 to 29%; pest or weed control at 70 g/ha [2, 14]: 45 to 59%; pest or weed control at 140 g/ha [2, 14]: 45 to 59%
3 | Nc1c(F)c(-c2cc3c(cc2F)OC(F)(F)O3)nc(C(=O)O)c1Cl [Compound 13] | 60 to 74 | 85 to 94 | 85 to 94 | 0 to 29 | 30 to 44 | 45 to 59 | 0 to 29 | 0 to 29 | 0 to 29 | 85 to 94 | 85 to 94 | 85 to 94 | 60 to 74 | 75 to 84 | 75 to 84 | 45 to 59 | 75 to 84 | 95 to 100 | 75 to 84 | 95 to 100 | pest or weed control at 140 g/ha [2, 9]: 85 to 94%; pest or weed control at 35 g/ha [2, 10]: 75 to 84%; pest or weed control at 70 g/ha [2, 10]: 75 to 84%; pest or weed control at 140 g/ha [2, 10]: 85 to 94%; pest or weed control at 35 g/ha [2, 11]: 60 to 74%; pest or weed control at 70 g/ha [2, 11]: 60 to 74%; pest or weed control at 140 g/ha [2, 11]: 75 to 84%; pest or weed control at 35 g/ha [2, 12]: 0 to 29%; pest or weed control at 70 g/ha [2, 12]: 0 to 29%; pest or weed control at 140 g/ha [2, 12]: 0 to 29%; pest or weed control at 35 g/ha [2, 13]: 45 to 59%; pest or weed control at 70 g/ha [2, 13]: 60 to 74%; pest or weed control at 140 g/ha [2, 13]: 60 to 74%; pest or weed control at 35 g/ha [2, 14]: 45 to 59%; pest or weed control at 70 g/ha [2, 14]: 75 to 84%; pest or weed control at 140 g/ha [2, 14]: 95 to 100%
4 | COC(=O)c1nc(-c2ccc3c(c2)OC(C)(C)O3)nc(N)c1OC [Compound 67] | 0 to 29 | 0 to 29 | 0 to 29 | 0 to 29 | 0 to 29 | 0 to 29 | 0 to 29 | 0 to 29 | 0 to 29 | 0 to 29 | 0 to 29 | 0 to 29 | 0 to 29 | 0 to 29 | 0 to 29 | 60 to 74 | 95 to 100 | 95 to 100 | 0 to 29 | 45 to 59 | pest or weed control at 140 g/ha [2, 9]: 75 to 84%; pest or weed control at 35 g/ha [2, 10]: 0 to 29%; pest or weed control at 70 g/ha [2, 10]: 45 to 59%; pest or weed control at 140 g/ha [2, 10]: 60 to 74%; pest or weed control at 35 g/ha [2, 11]: 0 to 29%; pest or weed control at 70 g/ha [2, 11]: 60 to 74%; pest or weed control at 140 g/ha [2, 11]: 60 to 74%; pest or weed control at 35 g/ha [2, 12]: 0 to 29%; pest or weed control at 70 g/ha [2, 12]: 0 to 29%; pest or weed control at 140 g/ha [2, 12]: 0 to 29%; pest or weed control at 35 g/ha [2, 13]: 0 to 29%; pest or weed control at 70 g/ha [2, 13]: 0 to 29%; pest or weed control at 140 g/ha [2, 13]: 0 to 29%; pest or weed control at 35 g/ha [2, 14]: 0 to 29%; pest or weed control at 70 g/ha [2, 14]: 0 to 29%; pest or weed control at 140 g/ha [2, 14]: 45 to 59%
